Reference: patent US8710021B2, “Inhibition of HRP-3 using modified oligonucleotides” (Bionucleon S.r.l., priority 2008, dated 2014)

Legend:
[1] = target: T1, HRP-3 (Homo sapiens, UniProt Q9Y3E1); assay: HUVEC migration assay with Duplex 1 and HRP-3; type: cell-based; conditions: 50 nM; data not shown
T1 construct: The HRP-3 coding region was cloned into the pET30 vector using EcoRI and NdeI as restriction sites; made in house; host or cells: E. coli BL21

[2] = target: T1, HRP-3; assay: 3T3 migration in vitro assay: prevention of HRP-3 function by DNA duplexes; type: cell-based, mouse
Procedure: All the four DNA duplexes were tested in our 3T3 migration in vitro assay to see if they were able to prevent HRP-3 function by binding its PWWP domain (FIG. 13). […] The third column on the left is the negative control.

T1 sequence (Q9Y3E1 whole entry): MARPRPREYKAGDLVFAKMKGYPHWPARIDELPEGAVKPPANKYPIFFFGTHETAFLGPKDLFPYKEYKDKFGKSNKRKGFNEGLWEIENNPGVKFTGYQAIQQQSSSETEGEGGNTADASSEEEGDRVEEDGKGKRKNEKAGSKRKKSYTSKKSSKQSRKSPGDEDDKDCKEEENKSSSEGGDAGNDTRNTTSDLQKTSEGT

Duplex 1: short (15 bp) duplex DNA, the duplex of Lukasik et al., designed to target HRP3 (FIG. 12) (chain 1 TACAACACCCACAAA; chain 2 TTTGTGGGTGTTGTA; chain 1: DNA, backbone and methylation of C not given here; chain 2: DNA, backbone not given here) [reference compound]
reversal of anti-migratory activity of HRP-3 on HUVEC [1]: restore totally
activity in abolishing the anti-migratory effect of HRP-3 on 3T3 cells [2]: able to abolish the protein effect of HRP-3
migration of 3T3 cells in presence of HRP-3 and duplex ([2]; 250 nM duplex with HRP-3): comparable with the control with FBS
influence of the duplex alone on 3T3 migration compared to control with FBS ([2]; 1000 nM, without HRP-3): does not have any influence on the migration
